Test results reported in PMC9395446, “First-in-human phase 1/1b study to evaluate sitravatinib in patients with advanced solid tumors” (Investigational New Drugs, 2022).

Assay: Safety in phase 1/1b study (DLTs, TRAEs, TEAEs; CTCAE v4.03)
Format: in vivo, human
Excerpt: Safety assessments included evaluation of DLTs, AEs, physical examinations, vital sign measurements, electrocardiogram recordings and laboratory tests.
A DLT was defined as a grade ≥ 4 hematologic abnormality lasting ≥ 4 days; grade 3 thrombocytopenia with clinically significant bleeding; febrile neutropenia; clinically significant grade ≥ 3 non-hematologic AEs not related to underlying malignancy; intolerable grade 2 AEs; or toxicity resulting in an inability to deliver 80% of the dose during the first treatment cycle.
The safety population included all patients who received ≥ 1 dose of sitravatinib. […] The PK evaluable population included all patients with sufficient concentration-time data for PK parameter evaluation. The modified intent-to-treat (mITT) population included all phase 1b patients who received ≥ 1 dose of study drug.

COCCNCc1ccc(-c2cc3nccc(Oc4ccc(NC(=O)C5(C(=O)Nc6ccc(F)cc6)CC5)cc4F)c3s2)nc1 [sitravatinib, Sitravatinib]
ALT increased TRAE, any grade (150 mg phase 1b): 18 (18.2) n (%)
ALT increased TRAE, grade ≥3 (150 mg phase 1b): 2 (2.0) n (%)
AST increased TEAE, any grade (150 mg phase 1b): 26 (26.3) n (%)
AST increased TEAE, grade ≥3 (150 mg phase 1b): 3 (3.0) n (%)
AST increased TRAE, any grade (150 mg phase 1b): 20 (20.2) n (%)
AST increased TRAE, grade ≥3 (150 mg phase 1b): 2 (2.0) n (%)
Abdominal pain TEAE, any grade (150 mg phase 1b): 26 (26.3) n (%)
Abdominal pain TEAE, grade ≥3 (150 mg phase 1b): 2 (2.0) n (%)
Abdominal pain TRAE, any grade (150 mg phase 1b): 14 (14.1) n (%)
Abdominal pain TRAE, grade ≥3 (150 mg phase 1b): 0 n (%)
Anemia TEAE, any grade (150 mg phase 1b): 23 (23.2) n (%)
Anemia TEAE, grade ≥3 (150 mg phase 1b): 8 (8.1) n (%)
Any TEAE (150 mg phase 1b): 99 (100.0) n (%)
Any TRAE (150 mg phase 1b): 92 (92.9) n (%)
Asthenia TEAE, any grade (150 mg phase 1b): 9 (9.1) n (%)
Asthenia TEAE, grade ≥3 (150 mg phase 1b): 0 n (%)
Back pain TEAE, any grade (150 mg phase 1b): 18 (18.2) n (%)
Back pain TEAE, grade ≥3 (150 mg phase 1b): 3 (3.0) n (%)
Blood and lymphatic system disorders TEAE, any grade (150 mg phase 1b): 27 (27.3) n (%)
Blood and lymphatic system disorders TEAE, grade ≥3 (150 mg phase 1b): 11 (11.1) n (%)
Blood creatinine increased TEAE, any grade (150 mg phase 1b): 15 (15.2) n (%)
Blood creatinine increased TEAE, grade ≥3 (150 mg phase 1b): 0 n (%)
Cardiac disorders TEAE, any grade (150 mg phase 1b): 15 (15.2) n (%)
Cardiac disorders TEAE, grade ≥3 (150 mg phase 1b): 6 (6.1) n (%)
Constipation TEAE, any grade (150 mg phase 1b): 40 (40.4) n (%)
Constipation TEAE, grade ≥3 (150 mg phase 1b): 0 n (%)
Constipation TRAE, any grade (150 mg phase 1b): 9 (9.1) n (%)
Constipation TRAE, grade ≥3 (150 mg phase 1b): 0 n (%)
Cough TEAE, any grade (150 mg phase 1b): 15 (15.2) n (%)
Cough TEAE, grade ≥3 (150 mg phase 1b): 0 n (%)
Decreased appetite TEAE, any grade (150 mg phase 1b): 38 (38.4) n (%)
Decreased appetite TEAE, grade ≥3 (150 mg phase 1b): 1 (1.0) n (%)
Decreased appetite TRAE, any grade (150 mg phase 1b): 27 (27.3) n (%)
Decreased appetite TRAE, grade ≥3 (150 mg phase 1b): 1 (1.0) n (%)
Dehydration TEAE, any grade (150 mg phase 1b): 23 (23.2) n (%)
Dehydration TEAE, grade ≥3 (150 mg phase 1b): 4 (4.0) n (%)
Diarrhea TEAE, any grade (150 mg phase 1b): 67 (67.7) n (%)
Diarrhea TEAE, grade ≥3 (150 mg phase 1b): 18 (18.2) n (%)
Diarrhea TRAE, any grade (150 mg phase 1b): 59 (59.6) n (%)
Diarrhea TRAE, grade ≥3 (150 mg phase 1b): 14 (14.1) n (%)
Dizziness TEAE, any grade (150 mg phase 1b): 19 (19.2) n (%)
Dizziness TEAE, grade ≥3 (150 mg phase 1b): 0 n (%)
Dizziness TRAE, any grade (150 mg phase 1b): 12 (12.1) n (%)
Dizziness TRAE, grade ≥3 (150 mg phase 1b): 0 n (%)
Dry mouth TEAE, any grade (150 mg phase 1b): 15 (15.2) n (%)
Dry mouth TEAE, grade ≥3 (150 mg phase 1b): 0 n (%)
Dry mouth TRAE, any grade (150 mg phase 1b): 10 (10.1) n (%)
Dry mouth TRAE, grade ≥3 (150 mg phase 1b): 0 n (%)
Dysphonia TEAE, any grade (150 mg phase 1b): 26 (26.3) n (%)
Dysphonia TEAE, grade ≥3 (150 mg phase 1b): 0 n (%)
Dysphonia TRAE, any grade (150 mg phase 1b): 13 (13.1) n (%)
Dysphonia TRAE, grade ≥3 (150 mg phase 1b): 0 n (%)
Dyspnea TEAE, any grade (150 mg phase 1b): 19 (19.2) n (%)
Dyspnea TEAE, grade ≥3 (150 mg phase 1b): 2 (2.0) n (%)
Edema peripheral TEAE, any grade (150 mg phase 1b): 16 (16.2) n (%)
Edema peripheral TEAE, grade ≥3 (150 mg phase 1b): 0 n (%)
Endocrine disorders TEAE, any grade (150 mg phase 1b): 27 (27.3) n (%)
Endocrine disorders TEAE, grade ≥3 (150 mg phase 1b): 2 (2.0) n (%)
Fatigue TEAE, any grade (150 mg phase 1b): 55 (55.6) n (%)
Fatigue TEAE, grade ≥3 (150 mg phase 1b): 9 (9.1) n (%)
Fatigue TRAE, any grade (150 mg phase 1b): 49 (49.5) n (%)
Fatigue TRAE, grade ≥3 (150 mg phase 1b): 7 (7.1) n (%)
Gastrointestinal disorders TEAE, any grade (150 mg phase 1b): 89 (89.9) n (%)
Gastrointestinal disorders TEAE, grade ≥3 (150 mg phase 1b): 33 (33.3) n (%)
General disorders and administration site conditions TEAE, any grade (150 mg phase 1b): 72 (72.7) n (%)
General disorders and administration site conditions TEAE, grade ≥3 (150 mg phase 1b): 12 (12.1) n (%)
Headache TEAE, any grade (150 mg phase 1b): 18 (18.2) n (%)
Headache TEAE, grade ≥3 (150 mg phase 1b): 1 (1.0) n (%)
Hypertension TEAE, any grade (150 mg phase 1b): 52 (52.5) n (%)
Hypertension TEAE, grade ≥3 (150 mg phase 1b): 29 (29.3) n (%)
Hypertension TRAE, any grade (150 mg phase 1b): 46 (46.5) n (%)
Hypertension TRAE, grade ≥3 (150 mg phase 1b): 24 (24.2) n (%)
Hypokalemia TEAE, any grade (150 mg phase 1b): 13 (13.1) n (%)
Hypokalemia TEAE, grade ≥3 (150 mg phase 1b): 3 (3.0) n (%)
Hypomagnesemia TEAE, any grade (150 mg phase 1b): 17 (17.2) n (%)
Hypomagnesemia TEAE, grade ≥3 (150 mg phase 1b): 0 n (%)
Hyponatremia TEAE, any grade (150 mg phase 1b): 16 (16.2) n (%)
Hyponatremia TEAE, grade ≥3 (150 mg phase 1b): 5 (5.1) n (%)
Hypophosphatemia TEAE, any grade (150 mg phase 1b): 15 (15.2) n (%)
Hypophosphatemia TEAE, grade ≥3 (150 mg phase 1b): 9 (9.1) n (%)
Hypothyroidism TEAE, any grade (150 mg phase 1b): 22 (22.2) n (%)
Hypothyroidism TEAE, grade ≥3 (150 mg phase 1b): 0 n (%)
Hypothyroidism TRAE, any grade (150 mg phase 1b): 16 (16.2) n (%)
Hypothyroidism TRAE, grade ≥3 (150 mg phase 1b): 0 n (%)
Infections and infestations TEAE, any grade (150 mg phase 1b): 40 (40.4) n (%)
Infections and infestations TEAE, grade ≥3 (150 mg phase 1b): 12 (12.1) n (%)
Injury, poisoning, procedural complications TEAE, any grade (150 mg phase 1b): 20 (20.2) n (%)
Injury, poisoning, procedural complications TEAE, grade ≥3 (150 mg phase 1b): 2 (2.0) n (%)
Investigations TEAE, any grade (150 mg phase 1b): 66 (66.7) n (%)
Investigations TEAE, grade ≥3 (150 mg phase 1b): 23 (23.2) n (%)
Lipase increased TEAE, any grade (150 mg phase 1b): 15 (15.2) n (%)
Lipase increased TEAE, grade ≥3 (150 mg phase 1b): 10 (10.1) n (%)
Metabolism and nutrition disorders TEAE, any grade (150 mg phase 1b): 71 (71.7) n (%)
Metabolism and nutrition disorders TEAE, grade ≥3 (150 mg phase 1b): 26 (26.3) n (%)
Musculoskeletal and connective tissue disorders TEAE, any grade (150 mg phase 1b): 56 (56.6) n (%)
Musculoskeletal and connective tissue disorders TEAE, grade ≥3 (150 mg phase 1b): 8 (8.1) n (%)
Nausea TEAE, any grade (150 mg phase 1b): 49 (49.5) n (%)
Nausea TEAE, grade ≥3 (150 mg phase 1b): 7 (7.1) n (%)
Nausea TRAE, any grade (150 mg phase 1b): 38 (38.4) n (%)
Nausea TRAE, grade ≥3 (150 mg phase 1b): 5 (5.1) n (%)
Neoplasms benign, malignant, unspecified TEAE, any grade (150 mg phase 1b): 10 (10.1) n (%)
Neoplasms benign, malignant, unspecified TEAE, grade ≥3 (150 mg phase 1b): 8 (8.1) n (%)
Nervous system disorders TEAE, any grade (150 mg phase 1b): 50 (50.5) n (%)
Nervous system disorders TEAE, grade ≥3 (150 mg phase 1b): 5 (5.1) n (%)
PPE syndrome TEAE, any grade (150 mg phase 1b): 23 (23.2) n (%)
PPE syndrome TEAE, grade ≥3 (150 mg phase 1b): 4 (4.0) n (%)
PPE syndrome TRAE, any grade (150 mg phase 1b): 22 (22.2) n (%)
PPE syndrome TRAE, grade ≥3 (150 mg phase 1b): 4 (4.0) n (%)
Pain in extremity TEAE, any grade (150 mg phase 1b): 15 (15.2) n (%)
Pain in extremity TEAE, grade ≥3 (150 mg phase 1b): 2 (2.0) n (%)
Proteinuria TEAE, any grade (150 mg phase 1b): 11 (11.1) n (%)
Proteinuria TEAE, grade ≥3 (150 mg phase 1b): 0 n (%)
Proteinuria TRAE, any grade (150 mg phase 1b): 9 (9.1) n (%)
Proteinuria TRAE, grade ≥3 (150 mg phase 1b): 0 n (%)
Psychiatric disorders TEAE, any grade (150 mg phase 1b): 25 (25.3) n (%)
Psychiatric disorders TEAE, grade ≥3 (150 mg phase 1b): 1 (1.0) n (%)
Rash TEAE, any grade (150 mg phase 1b): 12 (12.1) n (%)
Rash TEAE, grade ≥3 (150 mg phase 1b): 0 n (%)
Rash TRAE, any grade (150 mg phase 1b): 11 (11.1) n (%)
Rash TRAE, grade ≥3 (150 mg phase 1b): 0 n (%)
Renal and urinary disorders TEAE, any grade (150 mg phase 1b): 23 (23.2) n (%)
Renal and urinary disorders TEAE, grade ≥3 (150 mg phase 1b): 1 (1.0) n (%)
Respiratory, thoracic and mediastinal disorders TEAE, any grade (150 mg phase 1b): 65 (65.7) n (%)
Respiratory, thoracic and mediastinal disorders TEAE, grade ≥3 (150 mg phase 1b): 14 (14.1) n (%)
Serious TEAE (150 mg phase 1b): 49 (49.5) n (%)
Serious TRAE (150 mg phase 1b): 22 (22.2) n (%)
Skin and subcutaneous tissue disorders TEAE, any grade (150 mg phase 1b): 55 (55.6) n (%)
Skin and subcutaneous tissue disorders TEAE, grade ≥3 (150 mg phase 1b): 6 (6.1) n (%)
Stomatitis TEAE, any grade (150 mg phase 1b): 14 (14.1) n (%)
Stomatitis TEAE, grade ≥3 (150 mg phase 1b): 1 (1.0) n (%)
Stomatitis TRAE, any grade (150 mg phase 1b): 14 (14.1) n (%)
Stomatitis TRAE, grade ≥3 (150 mg phase 1b): 1 (1.0) n (%)
TEAE grade ≥3 (150 mg phase 1b): 80 (80.8) n (%)
TEAE leading to death (150 mg phase 1b): 10 (10.1) n (%)
TEAE leading to discontinuation (150 mg phase 1b): 24 (24.2) n (%)
TEAE leading to treatment modification (150 mg phase 1b): 74 (74.7) n (%)
TRAE grade ≥3 (150 mg phase 1b): 61 (61.6) n (%)
TRAE leading to death (150 mg phase 1b): 1 (1.0) n (%)
TRAE leading to discontinuation (150 mg phase 1b): 17 (17.2) n (%)
TRAE leading to treatment modification (150 mg phase 1b): 66 (66.7) n (%)
UTI TEAE, any grade (150 mg phase 1b): 14 (14.1) n (%)
UTI TEAE, grade ≥3 (150 mg phase 1b): 3 (3.0) n (%)
Vascular disorders TEAE, any grade (150 mg phase 1b): 61 (61.6) n (%)
Vascular disorders TEAE, grade ≥3 (150 mg phase 1b): 32 (32.3) n (%)
Vomiting TEAE, any grade (150 mg phase 1b): 38 (38.4) n (%)
Vomiting TEAE, grade ≥3 (150 mg phase 1b): 10 (10.1) n (%)
Vomiting TRAE, any grade (150 mg phase 1b): 31 (31.3) n (%)
Vomiting TRAE, grade ≥3 (150 mg phase 1b): 5 (5.1) n (%)
Weight decreased TEAE, any grade (150 mg phase 1b): 28 (28.3) n (%)
Weight decreased TEAE, grade ≥3 (150 mg phase 1b): 3 (3.0) n (%)
Weight decreased TRAE, any grade (150 mg phase 1b): 18 (18.2) n (%)
Weight decreased TRAE, grade ≥3 (150 mg phase 1b): 2 (2.0) n (%)
ALT increased TEAE, any grade (Overall): 46 (23.8) n (%)
ALT increased TEAE, grade ≥3 (Overall): 5 (2.6) n (%)
ALT increased TRAE, any grade (Overall): 35 (18.1) n (%)
ALT increased TRAE, grade ≥3 (Overall): 3 (1.6) n (%)
AST increased TEAE, any grade (Overall): 47 (24.4) n (%)
AST increased TEAE, grade ≥3 (Overall): 4 (2.1) n (%)
